In US20140142170A1, “COMPOSITION AND METHOD FOR INFLUENCING ENERGY METABOLISM AND TREATING METABOLIC AND OTHER DISORDERS” (SIRTUIN VALLEY OY, priority 2010, published 2014):
Where “and” joins values, the source holds several entries; their conditions need not be identical. Equal values may be shown once. Entries after “also recorded” stand apart in the source; their conditions may differ.

Key:
SIRT1 = SIRT1 protein expression, immunoblot and densitometry in 3T3 L1 preadipocytes; format: cell-based; details: 24 hours; for SIRT1 protein expression compared to control: 3T3 L1 cells, 60 μM each compound; for SIRT1 protein expression vs control: 3T3L1 preadipocytes, 100 μM
Method: (§1) 3T3L1 cells were purchased from American Type Culture Collection (Manassas, Va., USA) and cultured in DMEM media containing 4.5 g/l glucose supplemented with 10% fetal bovine serum (Hyclone), 2 mM L-glutamine (Gibco), 100 U/ml penicillin, and 100 μg/ml streptomycin (Gibco). The cells were cultured at 37° C. in a humidified atmosphere with 10% CO2.
The 3T3L1 cells were plated at 6×10^4 cells/well in 12 well plates and incubated at 37° C. in a humidified atmosphere with 10% CO2. The media was removed after 24 hours and the cells were treated with 60 μM GR24 individually and in combination with […] and 60 μM pinosylvin, and incubated for 24 hours at 37° C. in a humidified atmosphere with 10% CO2. The media was removed, cells were washed with PBS, and cell lysates were collected on ice. Proteins were extracted using RIPA buffer along with protease and phosphatase inhibitors. Lysates were centrifuged for 30 min at high speed; supernatant was collected and stored at […] until further analysis. The vehicle controls were 3T3 L1 cells without any treatment with drugs or other compounds. The drugs or compounds that were used in all the experiments were dissolved or diluted in dimethylsulfoxide (DMSO) as diluent. In all experiments, the controls were treated with the same volume of DMSO as was used to dissolve drugs or compounds in compound-treated cells to show and ensure that the actual change in protein expression in different treatments was due solely to the compounds or combination of compounds and not to the DMSO.
(§2) Protein concentrations were measured using a BCA (bicinchoninic acid) protein assay kit (Cat.#23225; Pierce, Rockford, Ill.). Twenty (20) μg/lane of total cellular protein samples containing NuPAGE LDS sample buffer (Invitrogen) and reducing agent were loaded into 4-12% NuPAGE Bis-Tris gels (Invitrogen), subjected to gel electrophoresis, and transferred to polyvinylidene fluoride membranes (Amersham). For SIRT1 proteins, membranes were blocked in 0.05% TBS-Tween with 3% milk for 1 hour, incubated overnight at +4° C. with SIRT1 primary antibodies (Cat.#07-131, Millipore). For phospho-AMPKα and AMPKα proteins, blocking was done for 1 hour in 0.1% TBS-Tween with 5% milk. The membranes were incubated overnight at +4° C. with phospho-AMPKα (Cat. #2535, Cell Signaling) and AMPKα (Cat.#2532, Cell Signaling) primary antibodies. Horseradish peroxidase-conjugated anti-rabbit antibodies (Cat. #NA934V GE Health Care, Amersham, U.K) were used as secondary antibodies. For α-tubulin (loading control), membranes were blocked in 0.05% PBS-Tween with 3% milk for 1 hour, incubated with α-tubulin (Cat.# B-5-1-2, Sigma) primary antibodies for 1 hour at room temperature and horseradish peroxidase-conjugated anti-mouse (Cat. # NA 931V GE Health Care, Amersham, U.K.) IgG antibodies were used as secondary antibodies.
(§3) The membranes were developed using chemiluminescence (ECL plus, GE Health Care), and images were captured in an Image Quant RT-ECL machine (version 1.0.1; GE Health Care). Densitometry and quantification of the bands were done by applying Quantity One software (Bio-Rad). The expression levels of the proteins were normalized to α-tubulin protein levels.
3T3L1 cells were purchased from American Type Culture Collection (Manassas, Va., USA) and cultured in DMEM media containing 4.5 g/l glucose supplemented with 10% fetal bovine serum (Hyclone), 2 mM L-glutamine (Gibco) and 100 U/ml penicillin, 100 μg/ml streptomycin (Gibco). The cells were cultured at 37° C. in a humidified atmosphere with 10% CO2. 3T3L1 preadipocytes were plated at 1×10^5 cells/well in 6 well plates and incubated at 37° C. in a humidified atmosphere with 10% CO2. […] In all experiments, the controls were treated with the same volume of DMSO as was used to dissolve compounds in compound-treated cells to show and ensure that the actual change in protein expression in different treatments was only due to the compounds DMSO. […]

PGC-1α = PGC-1α protein expression, immunoblot and densitometry in 3T3 L1 preadipocytes; format: cell-based; details: 60 μM, 24 hours, control = 100%
Method: as §1, with “CO2. […]” for “CO2.”
as §2, §3
PGC-1α as an indicator of SIRT1 activity: PGC-1α has been extensively described as a master regulator of mitochondrial biogenesis. […] When SIRT1 protein expression is induced, it interacts with and deacetylates PGC-1α in an NAD-dependent manner. Thus SIRT1 acts as a modulator of PGC-1a (Rodgers J T et al, Nature 2005). The effects of resveratrol, a nonselective SIRT1 activator, were associated with an induction of genes for oxidative phosphorylation and mitochondrial biogenesis, and were largely explained by a resveratrol-mediated decrease in PGC-1α acetylation and an increase in PGC-1α activity (Lagouge M, Cell 2006). Therefore, PGC-1α protein expression serves as an indicator of SIRT1 activity.
3T3L1 cells were purchased from American Type Culture Collection (Manassas, Va., USA) and cultured in DMEM media containing 4.5 g/l glucose supplemented with 10% fetal bovine serum (Hyclone), 2 mM L-glutamine (Gibco) and 100 U/ml penicillin, 100 μg/ml streptomycin (Gibco). The cells were cultured at 37° C. in a humidified atmosphere with 10% CO2. 3T3L1 preadipocytes were plated at 1×10^5 cells/well in 6 well plates and incubated at 37° C. in a humidified atmosphere with 10% CO2. The media was removed after 24 hours and the cells were treated with 60 μM GR24 or with 60 μM 1A, 1B, 5A, 5B, 6A, or 7A and incubated for 24 hours at 37° C. in a humidified atmosphere with 10% CO2. In all experiments, the controls were treated with the same volume of DMSO as was used to dissolve compounds in compound-treated cells to show and ensure that the actual change in protein expression in different treatments was only due to the compounds […]. The media was removed, cells were washed with PBS and cell lysates were collected on ice. Proteins were extracted using RIPA buffer along with protease and phosphatase inhibitors. Lysates were centrifuged for 30 min at high speed; supernatant was collected and stored at −70° C. until further analysis.

fungal cell = details: cited from earlier work

CC1=CC(O/C=C2/C(=O)O[C@@H]3c4ccccc4C[C@H]23)OC1=O (stereo partly shown) [GR24]
SIRT1 protein expression compared to control (SIRT1): significant increase; also recorded: significantly (*P<0.05) increased | SIRT1 protein expression compared to control (SIRT1; listed as GR 24): significant increase; also recorded: significantly (*P<0.05) increased | SIRT1 expression compared with resveratrol (SIRT1; 3T3 L1 preadipocytes, 60 μM): greater than did resveratrol | SIRT1 protein expression compared to control (100%) (SIRT1; 3T3 L1 preadipocytes, 60 μM, control = 100%): 168% and 164% and 198% and 220% and 149% | SIRT1 protein expression vs control (SIRT1): significantly increased | SIRT1 protein expression vs control (SIRT1; listed as GR 24): increase | PGC-1α protein expression compared to control (100%) (PGC-1α): 168% and 164% and 198% and 220% and 149% | ATP content of the fungal cell (fungal cell): rapid increase | NADH concentration (fungal cell): rapid increase | NADH dehydrogenase activity (fungal cell): rapid increase
